Values of other authors as cited in patent US20120288450A1, “Chewing gum formula for enhancing psycho-spirituality” (priority 2009, published 2012).
Entries after “also recorded” stand apart in the source; their conditions may differ.

What was measured:
[1] = ingested orally
[2] = in vivo
[3] = target: T1, Monoamine Oxidase Type-A (MAO-A) (Homo sapiens, UniProt P21397)
T1 sequence (P21397 1-527): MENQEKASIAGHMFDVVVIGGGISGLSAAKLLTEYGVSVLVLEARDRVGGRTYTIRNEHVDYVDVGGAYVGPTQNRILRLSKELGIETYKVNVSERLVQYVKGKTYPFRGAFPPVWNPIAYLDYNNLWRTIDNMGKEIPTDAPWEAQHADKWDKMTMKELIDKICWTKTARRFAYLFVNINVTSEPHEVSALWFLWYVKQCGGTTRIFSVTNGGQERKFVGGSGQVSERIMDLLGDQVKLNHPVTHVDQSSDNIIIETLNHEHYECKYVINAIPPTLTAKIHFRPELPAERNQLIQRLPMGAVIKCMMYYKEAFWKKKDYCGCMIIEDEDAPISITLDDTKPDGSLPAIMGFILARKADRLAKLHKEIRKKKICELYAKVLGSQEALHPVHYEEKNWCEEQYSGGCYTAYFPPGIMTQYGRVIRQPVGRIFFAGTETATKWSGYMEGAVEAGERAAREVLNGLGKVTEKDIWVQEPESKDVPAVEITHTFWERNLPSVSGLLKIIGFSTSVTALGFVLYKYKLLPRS

[4] = in vivo; remark: listed apart in the source
[5] = tested on: various different bioreceptor sites; conditions: sites commonly effected by most other psychoactive compounds
[6] = target: anandamide (CB1) receptor (Homo sapiens, UniProt P21554)
Chain of anandamide (CB1) receptor (P21554 whole entry, species assumed): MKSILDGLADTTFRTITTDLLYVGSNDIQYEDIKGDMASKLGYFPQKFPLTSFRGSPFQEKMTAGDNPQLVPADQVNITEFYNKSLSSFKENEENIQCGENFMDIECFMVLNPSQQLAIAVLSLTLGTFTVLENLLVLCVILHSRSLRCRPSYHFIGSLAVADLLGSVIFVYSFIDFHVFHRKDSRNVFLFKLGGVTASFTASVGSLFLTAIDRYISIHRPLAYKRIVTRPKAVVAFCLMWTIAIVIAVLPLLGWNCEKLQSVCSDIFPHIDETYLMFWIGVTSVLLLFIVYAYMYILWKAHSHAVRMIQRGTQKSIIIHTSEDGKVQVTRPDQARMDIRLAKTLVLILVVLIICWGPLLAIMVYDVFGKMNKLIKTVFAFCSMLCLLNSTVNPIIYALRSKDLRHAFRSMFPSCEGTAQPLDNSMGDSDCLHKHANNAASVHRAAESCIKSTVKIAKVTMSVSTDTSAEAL

[7] = moisture, light, and radiation
[8] = in vivo; remark: listed apart in the source
[9] = mice
[10] = target: T2, Monoamine Oxidase Type-B (MAO-B) (Homo sapiens, UniProt P27338)
T2 sequence (P27338 1-520): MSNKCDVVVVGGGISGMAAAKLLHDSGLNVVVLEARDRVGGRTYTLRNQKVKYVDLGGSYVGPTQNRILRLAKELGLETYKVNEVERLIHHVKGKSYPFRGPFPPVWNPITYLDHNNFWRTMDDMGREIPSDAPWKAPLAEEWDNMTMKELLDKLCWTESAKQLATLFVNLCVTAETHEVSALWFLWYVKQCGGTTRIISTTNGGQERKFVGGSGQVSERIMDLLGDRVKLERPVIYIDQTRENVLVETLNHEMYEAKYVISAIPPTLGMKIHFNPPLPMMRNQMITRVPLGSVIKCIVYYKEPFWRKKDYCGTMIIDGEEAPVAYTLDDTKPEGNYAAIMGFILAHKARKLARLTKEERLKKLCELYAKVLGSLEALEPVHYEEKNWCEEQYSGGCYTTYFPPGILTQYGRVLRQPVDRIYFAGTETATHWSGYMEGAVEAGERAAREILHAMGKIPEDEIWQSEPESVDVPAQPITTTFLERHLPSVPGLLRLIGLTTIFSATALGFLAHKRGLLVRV

[11] = in vivo; remark: listed apart in the source
[12] = tested on: dopamine in the nucleus accumbens; conditions: in vivo

Structure (SMILES) | entry into the blood stream [1] | toxicity [2] | inhibition of MAO-A enzyme [3] | minimal dose [4] | competitive inhibition of reference target compounds at bioreceptor sites [5] | active binding to the MK-801 receptor site (MK-801 receptor sites) | active binding to the anandamide (CB1) receptor site [6] | stability of potency [7] | habit forming / addictiveness [8] | anxiolytic and anti-depressant findings [9] | inhibition of MAO-B enzyme [10] | effect on cocaine-produced drug seeking [11] | solubility in acetone | solubility in water and saliva (when still embedded in the leaf) | release of dopamine in the nucleus accumbens [12] | psychoactive effect / activity [4]
COC(=O)[C@@H]1C[C@H](OC(C)=O)C(=O)[C@H]2[C@@]1(C)CC[C@H]1C(=O)O[C@H](c3ccoc3)C[C@]21C [Salvinorin A] | doesn't efficiently enter the blood stream | almost entirely non-toxic; also recorded: ultra low toxicity | does not inhibit | 0.2 mg | has not been shown to incur any significant, competitive inhibition | nor has it shown any active binding | nor has it shown any active binding | diminish the potency | non-habit forming and thus non-addictive | anxiolytic and anti-depressant | does not inhibit | successful in decreasing the effect of cocaine-produced drug seeking | highly soluble | substantially water- and saliva-insoluble | does not induce the release of dopamine | 
COC(=O)[C@@H]1C[C@H](O)C(=O)[C@H]2[C@@]1(C)CC[C@H]1C(=O)O[C@H](c3ccoc3)C[C@]21C [Salvinorin “B”] |  |  |  |  |  |  |  |  |  |  |  |  |  |  |  | not known to induce psychoactive effect
